# Experimental data from US20240024333A1, “USE OF SMALL MOLECULE FAK ACTIVATORS TO PROMOTE MUCOSAL HEALING” (Regents of the University of Minnesota, priority 2020, published 2024).
# “Also recorded” adds a separate entry of the source. Read-outs that look alike come from different tables or passages of the source.
# What was measured:
# FAK = molecular target: T1, FAK (Homo sapiens, UniProt Q05397); assay: Cell-based FAK-Tyr-397 activation (Western blot, Caco-2 cells); details: for FAK-Tyr-397/FAK fold change: Cell-based FAK-Tyr-397 activation; for FAK activation / FAK-Tyr-397 phosphorylation (in words): vs. DMSO vehicle control
# T1 construct: endogenous in cells; host or cells: Caco-2 (human, ATCC)
# T1 sequence (Q05397 whole entry): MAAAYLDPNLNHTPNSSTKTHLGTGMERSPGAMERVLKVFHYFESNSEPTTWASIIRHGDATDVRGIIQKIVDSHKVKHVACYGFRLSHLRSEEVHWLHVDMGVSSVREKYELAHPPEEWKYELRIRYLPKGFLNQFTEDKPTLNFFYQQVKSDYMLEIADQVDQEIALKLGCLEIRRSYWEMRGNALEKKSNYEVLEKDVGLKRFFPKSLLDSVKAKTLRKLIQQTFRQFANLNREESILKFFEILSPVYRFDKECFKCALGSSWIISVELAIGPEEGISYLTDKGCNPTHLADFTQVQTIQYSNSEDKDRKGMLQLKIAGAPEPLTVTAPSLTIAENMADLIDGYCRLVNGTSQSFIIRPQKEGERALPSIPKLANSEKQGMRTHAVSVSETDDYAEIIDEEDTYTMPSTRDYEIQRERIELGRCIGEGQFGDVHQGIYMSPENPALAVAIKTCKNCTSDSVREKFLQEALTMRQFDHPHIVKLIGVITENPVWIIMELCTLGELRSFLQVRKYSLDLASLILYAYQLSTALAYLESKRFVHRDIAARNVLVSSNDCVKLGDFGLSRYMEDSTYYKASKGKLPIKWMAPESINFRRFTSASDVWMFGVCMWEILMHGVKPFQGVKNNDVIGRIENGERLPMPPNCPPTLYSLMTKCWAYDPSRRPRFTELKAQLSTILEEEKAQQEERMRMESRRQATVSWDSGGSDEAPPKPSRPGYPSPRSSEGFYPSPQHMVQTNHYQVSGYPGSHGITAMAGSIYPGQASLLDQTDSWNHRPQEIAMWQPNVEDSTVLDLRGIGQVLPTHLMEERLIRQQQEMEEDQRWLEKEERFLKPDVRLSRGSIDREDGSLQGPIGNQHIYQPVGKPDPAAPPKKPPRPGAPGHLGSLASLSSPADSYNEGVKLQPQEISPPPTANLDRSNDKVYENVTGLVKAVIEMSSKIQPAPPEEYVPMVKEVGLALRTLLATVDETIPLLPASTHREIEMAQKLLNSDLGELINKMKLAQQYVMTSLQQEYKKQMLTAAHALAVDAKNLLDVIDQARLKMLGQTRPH
# Method: Human Caco-2 cells were from ATCC (Manassas, VA) and maintained in Dulbecco's Modified Essential Eagle's Medium supplemented with 10% FBS as described by us previously 25. 80-90% confluent Caco-2 cells were seeded into cell culture plates pacificated with 1% heat inactivated bovine serum albumin to prevent adhesion and avoid adhesion-associated background FAK activation. Suspended cells were then treated with DMSO (0.1%) or small molecules for 1 hour before harvesting for Western blotting.
# Cells were lysed and protein concentration was determined via bicinchoninic acid protein assay (Thermo Fisher, Rockford, IL). […] Images were taken using a LICOR-Odyssey-Fc imaging system (LI-COR Biosciences, Lincoln, NE).
# CYP 2C19 = CYP 2C19 (Homo sapiens, UniProt P33261); assay: CYP 2C19 inhibition; format: in vitro ADME
# Sequence of CYP 2C19 (P33261 whole entry, canonical isoform): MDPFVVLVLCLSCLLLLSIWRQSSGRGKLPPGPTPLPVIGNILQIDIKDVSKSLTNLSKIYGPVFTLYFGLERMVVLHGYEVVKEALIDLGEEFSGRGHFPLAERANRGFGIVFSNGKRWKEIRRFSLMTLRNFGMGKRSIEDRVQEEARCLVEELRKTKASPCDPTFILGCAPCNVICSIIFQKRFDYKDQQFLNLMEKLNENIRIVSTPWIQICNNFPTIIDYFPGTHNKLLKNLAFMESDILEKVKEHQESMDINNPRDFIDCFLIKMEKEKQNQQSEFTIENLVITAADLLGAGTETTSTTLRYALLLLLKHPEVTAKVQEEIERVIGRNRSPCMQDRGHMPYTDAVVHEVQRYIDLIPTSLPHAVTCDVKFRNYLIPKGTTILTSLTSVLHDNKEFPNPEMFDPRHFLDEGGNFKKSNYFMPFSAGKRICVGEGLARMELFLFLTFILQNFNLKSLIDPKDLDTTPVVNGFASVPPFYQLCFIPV
# From the text: (§1) The most successful molecules underwent in vitro ADMET assays, including mouse and human metabolic stability, solubility (pH 7.4), Caco-2 (permeability), and log D determination. We will evaluate lead candidates for drug-like properties, including aqueous solubility (PBS buffer, pH 7.4), pKa, lipophilicity, chemical stability at pH 1 (the pH of the stomach), pH 6 (small intestine), A-B partitioning (octanol-PBS buffer, pH 7.4), liver microsomal stability as an indication of potential first-pass metabolism (microsomes from mouse and humans), substrate potential for isoforms of human P450 such as CYP3A4, cell permeability (Caco-2 cells), hERG toxicity (cell lines), mutagenesis, and plasma protein binding (mouse & human). […]. Computed physical properties that correlate with good oral bioavailability and cell permeability will be calculated for new compounds throughout the optimization process and will […] also influence lead compound selection as will ligand efficiency (LE) and lipophilic efficiency (LLE). Molecules will be administered by gavage to mice at 30 mg/kg, and we will measure plasma levels at 2 and 4 hours. The most successful molecules in this regard (with the highest levels at 2 and 4 hours) may be further modified by developing combinations of modifications at different parts of the molecule.
# mice [1] = details: mouse, in vivo
# Caco-2 cells = assay: Caco-2 monolayer wound closure assay; format: cell-based, human
# Method: Caco-2 cells were seeded at 75-80% confluence into collagen I coated 6-well plates. When the cells reached 100% confluence, wounds were made in the monolayers with non-barrier autoclaved tips. Wound images were captured using an inverted light microscope (OLYMPUS CK2, Center Valley, PA) at 0 hours and 24 hours after treatment with DMSO or small molecules. Wound areas were measured with Image J software.
# CYP 2C9 = CYP 2C9 (Homo sapiens, UniProt P11712); assay: CYP 2C9 inhibition; format: in vitro ADME
# Sequence of CYP 2C9 (P11712 whole entry): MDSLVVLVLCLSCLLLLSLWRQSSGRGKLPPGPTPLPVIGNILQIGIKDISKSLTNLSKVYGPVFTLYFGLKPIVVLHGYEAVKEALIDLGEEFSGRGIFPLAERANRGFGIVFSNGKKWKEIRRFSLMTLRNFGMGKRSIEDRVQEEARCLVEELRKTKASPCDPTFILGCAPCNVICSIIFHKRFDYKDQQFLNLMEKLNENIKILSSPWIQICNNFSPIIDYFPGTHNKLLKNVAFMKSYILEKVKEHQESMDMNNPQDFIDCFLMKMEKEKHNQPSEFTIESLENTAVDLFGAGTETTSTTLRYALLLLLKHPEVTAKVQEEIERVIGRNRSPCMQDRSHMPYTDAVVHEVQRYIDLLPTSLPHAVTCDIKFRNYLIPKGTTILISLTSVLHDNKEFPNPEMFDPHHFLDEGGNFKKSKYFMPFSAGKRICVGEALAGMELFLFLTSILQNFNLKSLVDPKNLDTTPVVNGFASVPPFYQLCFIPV
# From the text: as §1
# in vivo = details: mouse
# log D determination = format: physicochemical; details: pH 7.4
# From the text: as §1
# hERG = hERG (Homo sapiens, UniProt Q12809); assay: hERG toxicity; format: cell-based
# Sequence of hERG (Q12809 whole entry): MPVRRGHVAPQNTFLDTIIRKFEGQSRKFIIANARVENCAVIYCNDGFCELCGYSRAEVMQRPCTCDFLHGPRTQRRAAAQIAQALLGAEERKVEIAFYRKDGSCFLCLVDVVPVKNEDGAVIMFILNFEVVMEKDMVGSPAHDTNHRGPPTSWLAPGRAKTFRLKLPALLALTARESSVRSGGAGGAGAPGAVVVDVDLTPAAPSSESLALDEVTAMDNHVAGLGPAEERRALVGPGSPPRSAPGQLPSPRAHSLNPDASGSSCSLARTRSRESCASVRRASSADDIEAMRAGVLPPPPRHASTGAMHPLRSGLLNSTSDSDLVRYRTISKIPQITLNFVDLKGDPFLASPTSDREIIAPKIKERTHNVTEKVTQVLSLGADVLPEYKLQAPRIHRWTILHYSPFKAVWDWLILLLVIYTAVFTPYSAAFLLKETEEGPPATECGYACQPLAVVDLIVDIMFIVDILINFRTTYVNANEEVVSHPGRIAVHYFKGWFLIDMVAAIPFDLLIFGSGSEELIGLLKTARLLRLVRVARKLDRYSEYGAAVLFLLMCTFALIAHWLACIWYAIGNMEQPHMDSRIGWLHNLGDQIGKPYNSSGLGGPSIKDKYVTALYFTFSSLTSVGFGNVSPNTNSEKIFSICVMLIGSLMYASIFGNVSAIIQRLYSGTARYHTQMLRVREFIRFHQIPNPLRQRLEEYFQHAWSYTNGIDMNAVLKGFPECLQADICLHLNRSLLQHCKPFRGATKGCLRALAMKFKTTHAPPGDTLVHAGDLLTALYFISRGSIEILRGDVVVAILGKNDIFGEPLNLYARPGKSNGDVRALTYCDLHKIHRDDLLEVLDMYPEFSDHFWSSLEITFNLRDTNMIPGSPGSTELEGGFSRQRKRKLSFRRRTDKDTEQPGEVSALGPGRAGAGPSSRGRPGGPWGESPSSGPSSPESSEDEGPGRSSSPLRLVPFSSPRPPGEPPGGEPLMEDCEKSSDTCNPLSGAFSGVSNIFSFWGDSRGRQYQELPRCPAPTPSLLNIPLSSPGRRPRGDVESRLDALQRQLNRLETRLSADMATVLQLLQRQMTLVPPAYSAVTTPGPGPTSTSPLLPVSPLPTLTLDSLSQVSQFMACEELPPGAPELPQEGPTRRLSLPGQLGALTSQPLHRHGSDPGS
# From the text: as §1
# FAK 35 kD kinase domain = FAK 35 kD kinase domain (Homo sapiens, UniProt Q05397); assay: In vitro kinase assay with purified FAK kinase domain; details: FIG. 5
# Sequence of FAK 35 kD kinase domain (Q05397 422-680 limits assumed): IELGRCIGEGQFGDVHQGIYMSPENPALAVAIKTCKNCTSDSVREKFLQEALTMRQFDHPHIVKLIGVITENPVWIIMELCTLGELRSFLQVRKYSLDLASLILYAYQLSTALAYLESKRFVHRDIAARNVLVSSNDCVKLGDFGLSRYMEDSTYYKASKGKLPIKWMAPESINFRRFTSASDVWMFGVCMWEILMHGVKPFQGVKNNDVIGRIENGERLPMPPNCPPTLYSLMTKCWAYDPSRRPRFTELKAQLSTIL
# [2] = tested on: IMR-90 human pulmonary fibroblasts; assay: Cytotoxicity in IMR-90 cells; format: cell-based; details: for Cytotoxicity (LD50): IMR90
# Pyk2 = molecular target: T2, Pyk2 (Homo sapiens, UniProt Q14289); assay: Pyk2 activation in intact cells; format: cell-based
# T2 construct: endogenous in cells; host or cells: Caco-2
# T2 sequence (Q14289 whole entry): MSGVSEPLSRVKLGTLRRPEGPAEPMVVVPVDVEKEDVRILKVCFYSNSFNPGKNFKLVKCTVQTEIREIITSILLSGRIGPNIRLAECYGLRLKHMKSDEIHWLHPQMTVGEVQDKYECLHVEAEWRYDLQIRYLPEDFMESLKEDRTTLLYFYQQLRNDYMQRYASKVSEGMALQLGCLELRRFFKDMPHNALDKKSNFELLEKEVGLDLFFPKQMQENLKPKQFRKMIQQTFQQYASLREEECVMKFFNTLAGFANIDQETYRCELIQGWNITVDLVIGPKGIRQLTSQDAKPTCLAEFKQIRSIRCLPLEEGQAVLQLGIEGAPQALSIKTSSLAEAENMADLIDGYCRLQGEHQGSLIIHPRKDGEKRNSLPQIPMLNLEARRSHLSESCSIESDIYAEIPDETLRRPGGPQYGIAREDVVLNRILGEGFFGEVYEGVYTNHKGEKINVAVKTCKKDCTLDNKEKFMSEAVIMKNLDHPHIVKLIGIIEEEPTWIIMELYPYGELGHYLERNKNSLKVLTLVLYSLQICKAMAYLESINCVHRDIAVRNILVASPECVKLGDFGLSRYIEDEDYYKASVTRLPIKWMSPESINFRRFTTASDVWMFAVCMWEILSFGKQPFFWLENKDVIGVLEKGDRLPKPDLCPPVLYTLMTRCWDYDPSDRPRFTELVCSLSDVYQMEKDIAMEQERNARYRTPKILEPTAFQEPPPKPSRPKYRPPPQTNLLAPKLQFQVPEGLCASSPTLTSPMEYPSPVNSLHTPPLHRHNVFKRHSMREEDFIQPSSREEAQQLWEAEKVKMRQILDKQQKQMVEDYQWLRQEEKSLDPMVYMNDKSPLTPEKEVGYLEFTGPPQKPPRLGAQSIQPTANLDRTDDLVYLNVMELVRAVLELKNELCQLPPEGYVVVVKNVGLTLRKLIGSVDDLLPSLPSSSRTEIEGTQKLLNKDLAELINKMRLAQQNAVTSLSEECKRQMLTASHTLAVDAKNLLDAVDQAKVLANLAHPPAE
# [3] = tested on: intestinal mucosal ulcers; assay: Intestinal mucosal healing in vivo (model not given); design: species or system mice; details: mouse
# [4] = B/P ratio and blood-brain barrier crossing; format: in vivo; details: for blood-brain barrier crossing (in words): in vivo
# CYP 2D6 = CYP 2D6 (Homo sapiens, UniProt P10635); assay: CYP 2D6 inhibition; format: in vitro ADME
# From the text: as §1
# Solubility = format: physicochemical
# From the text: as §1
# [5] = mouse, in vivo; for course of plasma levels after enteral dosing (in words): 10 mg/kg
# Human plasma stability = format: in vitro ADME; details: at 6 h
# [6] = tested on: SH-SY5Y human neuronal cells; assay: Cytotoxicity in SH-SY5Y cells; format: cell-based
# Plasma protein binding = format: in vitro ADME
# From the text: as §1
# [7] = tested on: ischemic ileal mucosal ulcers; assay: Ischemic ileal ulcer model (acetic-acid-soaked discs on serosa); format: in vivo, mice; details: for ischemic ulcer healing (in words): mice, 40: 30 mg/kg/day by osmotic minipump, 4 days, 30 mg/kg/day
# Mini-Ames = assay: Mini-Ames
# From the text: as §1
# Src = molecular target: T3, Src (Homo sapiens, UniProt P12931); assay: Src activation in intact cells; format: cell-based
# T3 construct: endogenous in cells; host or cells: Caco-2
# T3 sequence (P12931 whole entry): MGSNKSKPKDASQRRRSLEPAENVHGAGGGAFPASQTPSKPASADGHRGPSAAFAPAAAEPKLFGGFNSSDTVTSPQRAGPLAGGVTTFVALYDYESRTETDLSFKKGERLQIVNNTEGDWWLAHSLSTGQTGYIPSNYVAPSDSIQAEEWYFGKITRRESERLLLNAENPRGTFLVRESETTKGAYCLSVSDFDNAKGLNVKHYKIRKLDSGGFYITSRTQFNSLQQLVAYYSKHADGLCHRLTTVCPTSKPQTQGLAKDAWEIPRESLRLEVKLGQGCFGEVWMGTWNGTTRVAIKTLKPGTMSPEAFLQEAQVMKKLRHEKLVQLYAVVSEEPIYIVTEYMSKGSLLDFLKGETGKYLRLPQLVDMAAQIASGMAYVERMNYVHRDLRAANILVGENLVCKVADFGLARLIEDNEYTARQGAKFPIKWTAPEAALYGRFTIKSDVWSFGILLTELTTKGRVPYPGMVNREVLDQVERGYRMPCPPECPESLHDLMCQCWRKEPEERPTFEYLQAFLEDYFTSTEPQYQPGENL
# mice [8] = assay: Tolerability and toxicity in mice
# [9] = Cytotoxicity (cells not named); format: cell-based
smiles,measurement,setting,value
O=C(Nc1ccccc1N1CCOCC1)N1CCCC1c1ccncc1 (centres unmarked) [Compound 46],FAK-Tyr-397/FAK fold change,FAK,1.1 fold change
same,FAK activation / FAK-Tyr-397 phosphorylation (in words),FAK,did not induce FAK phosphorylation
O=C(Nc1cc(C(F)(F)F)ccc1N1CCOCC1)N1CCCC1c1ccncc1 (centres unmarked) [Compound 24],IC50,CYP 2C19,5.43 µM
same,neurotoxicity (in words),mice [1],no neurotoxicity was detected
same,tolerability / gross toxicity in mice (in words),mice [1],without obvious toxicity
same,concentration as low as which in vitro wound closure is stimulated,Caco-2 cells,100 pM
same,IC50,CYP 2C9,4.5 µM
same,half-life,in vivo; T1/2,~1.5 h
same,log D7.4,log D determination,log D7.4 = 3.12
same,hERG,hERG,hERG = 2.958 μM
same,concentration of maximal effect in in vitro kinase assay,FAK 35 kD kinase domain,about 0.3 nM
same,Cytotoxicity (LD50),[2],>1 mM
same,Selectivity against relative off-targets: no Pyk2 activation at multiple of FAK activation,Pyk2,activation at >1000 × × FAK activation
same,intestinal mucosal healing in vivo (in words),[3],promoting small bowel mucosal wound healing
same,B/P ratio,[4]; 2 h,B/P ratio <0.15
same,blood-brain barrier crossing (in words),[4],cross the blood-brain barrier
same,IC50,CYP 2D6,10.1 µM
same,water solubility / need of DMSO (in words),Solubility,required DMSO solubilization; also recorded: somewhat less insoluble
same,solubility,"Solubility; PBS buffer, pH 7.4, aqueous buffer",252 µM
same,concentration level of FAK activation (in words),FAK,considerably lower concentration than 45
same,concentration as low as which FAK is activated,FAK; Caco-2 cells,100 pM
same,EC50,"FAK; in vitro, assay not named in Table 4, read-out: FAK potency EC50",< 0.01 µM
same,FAK activation / FAK-Tyr-397 phosphorylation (in words),FAK,seemed to activate FAK
same,oral / enteral absorption (in words),[5]; po,readily orally
same,Human plasma stability,Human plasma stability,98.62% at 6 h
same,Cytotoxicity (LD50),[6],>1 mM
same,fraction unbound,Plasma protein binding; plasma,0.0949
same,ischemic ulcer healing (in words),[7],accelerated; also recorded: can heal intestinal mucosal ulcers
same,Mouse therapeutic dose,[7]; × 4 days,<30 mg/kg/day
same,Mini-Ames,Mini-Ames,negative
same,Selectivity against relative off-targets: no Src activation at multiple of FAK activation,Src,activation at >1000 × × FAK activation
O=C(Nc1cc(C(F)(F)F)ccc1N1CCOCC1)N1CCCC1C1CCCCC1 (centres unmarked) [Compound 36],FAK activation / FAK-Tyr-397 phosphorylation (in words),FAK,seemed to activate FAK
CN(C)C(CNC(=O)Nc1cc(C(F)(F)F)ccc1N1CCOCC1)c1ccncc1 (centres unmarked) [Compound 40],neurotoxicity (in words),mice [1],no neurotoxicity was detected
same,"renal/hepatic histology, creatinine, ALT (in words)",mice [1],normal
same,serum chemistries (in words),mice [1]; 120 mg/kg,normal
same,wound closure after two 2-hour exposures vs full 24 hours of exposure,Caco-2 cells; 100 nM,equivalent stimulation of wound closure
same,wound closure at 24 hours after three-hour exposure vs 24 hours exposure,"Caco-2 cells; 100 nM, medium changed back after exposure",same effect as 24 hours
same,wound closure with proliferation blocked by hydroxyurea (in words),Caco-2 cells; hydroxyurea present,still stimulates Caco-2 monolayer wound closure
same,monolayer wound closure / epithelial sheet migration (in words),"Caco-2 cells; in vitro, 24 hours",stimulates wound closure; also recorded: promotes epithelial monolayer wound healing; also recorded: dose-responsive stimulation
same,concentration at 4 days,in vivo; 1.25 mg/kg,26 ng/mL
same,half-life,in vivo; T1/2,~1.5 h
same,half-life,in vivo; plasma half-life,1.5 h
same,lethal single dose,mice [8],480 mg/kg
same,log D7.4,log D determination,log D7.4 = 2.87
same,hERG,hERG; human,hERG > 30 μM
same,Cytotoxicity (LD50),[2],SYSY (LD50)~1 mM
same,concentration at which cytotoxicity is displayed,[2]; IMR-90,1000 µM
same,cytotoxic concentration as multiple of the 100 pM that activates FAK,[2]; IMR-90,10^7 ×
same,Pyk2 activation (in words),Pyk2; at 10 μM,does not activate
same,cytotoxicity (in words),[9],no cytotoxicity at 10000× higher than effective doses; also recorded: neither cytotoxic nor carcinogenic
same,blood-brain barrier crossing (in words),[4],cross the blood-brain barrier
same,water solubility / need of DMSO (in words),Solubility,does not require DMSO; also recorded: truly water soluble
same,course of plasma levels after enteral dosing (in words),[5],decline by two hours
same,course of plasma levels after enteral dosing (in words),[5]; 2 h,decrease by 2 hours
same,plasma level after 240 mg/kg as multiple of therapeutic plasma level,[5]; 1 h,~6*10^6 ×
same,Human plasma stability,Human plasma stability,88.56% at 6 h
same,Cytotoxicity (LD50),[6],SYSY (LD50)~1 mM
same,concentration at which cytotoxicity is displayed,[6],1000 µM
same,cytotoxic concentration as multiple of the 100 pM that activates FAK,[6],10^7 ×
same,Plasma protein binding,Plasma protein binding,91.39%
same,ischemic ulcer healing (in words),[7],much smaller ulcers; also recorded: acceleration of healing
same,Mini-Ames,Mini-Ames,negative
same,Src activation (in words),Src; at 10 μM,does not activate
O=C(Nc1cc(C(F)(F)F)ccc1N1CCOCC1)N1CCCC1c1ccccc1 (centres unmarked) [Compound 37],FAK activation / FAK-Tyr-397 phosphorylation (in words),FAK,seemed to activate FAK
O=C(Nc1cc(F)ccc1N1CCOCC1)N1CCCC1c1ccncc1 (centres unmarked) [Compound 25],FAK activation / FAK-Tyr-397 phosphorylation (in words),FAK,does not impair activity
CCN(C(=O)Nc1ccccc1N1CCOCC1)C(C)c1ccccc1 (centres unmarked) [Compound 48],FAK-Tyr-397/FAK fold change,FAK,1.1 fold change
same,FAK activation / FAK-Tyr-397 phosphorylation (in words),FAK,did not induce FAK phosphorylation
O=C(Nc1cc(C(F)(F)F)ccc1N1CCOCC1)N1CCCC1c1ccc(O)cc1 (centres unmarked) [Compound 49],FAK-Tyr-397/FAK fold change,FAK,1.1 fold change
